Experimental findings from patent US8183351B2, “Avermectin derivatives” (Bayer Cropscience AG, priority 2006, dated 2012) are described below.

Assay type in all cases: in vivo
In experiment [1] the test system is caterpillars of the army worm (Spodoptera frugiperda). Description: Spodoptera frugiperda test (SPODFR spray treatment). Conditions: Example I; 4 ppm active compound; sprayed maize leaf discs. As to the method:
Spodoptera frugiperda Test (SPODFR Spray Treatment)
• Solvents: 78.0 parts by weight of acetone • 1.5 parts by weight of dimethylformamide • Emulsifier: 0.5 part by weight of alkylaryl polyglyycol ether
After the desired period of time, the effect in % is determined. 100% means that all caterpillars have been killed; 0% means that none of the caterpillars have been killed.

Experiment [2] has as its system larvae of the mustard beetle (Phaedon cochleariae). Description: Phaedon test (PHAECO spray treatment). Conditions: 4 ppm active compound, sprayed Chinese cabbage discs. As to the method:
Phaedon Test (PHAECO Spray Treatment)
• Solvents: 78 parts by weight of acetone • 1.5 parts by weight of dimethylformamide • Emulsifier: 0.5 part by weight of alkylaryl polyglyycol ether
After the desired period of time, the effect in % is determined. 100% means that all beetle larvae have been killed; 0% means that none of the beetle larvae have been killed.

Experiment [3] has as its system Lucilia cuprina larvae. Description: Lucilia cuprina test (LUCICU). Conditions: treated horsemeat. As to the method: Lucilia cuprina Test (LUCICU)
Description for Examples A and B
(§1) • Solvent: Dimethyl sulphoxide
To produce a suitable preparation of active compound, 1 part by weight of active compound is mixed with the stated amount of water and the concentrate is diluted with water to the desired concentration.
Containers containing horsemeat treated with the active compound preparation of the desired concentration are populated with Lucilia cuprina larvae.
After the desired period of time, the kill in % is determined. 100% means that all larvae have been killed; 0% means that none of the larvae have been killed.
(§2) In this test, for example, the following compounds of the preparation examples show good activity: see table

For experiment [4], the system named is adult Musca domestica. Description: Musca domestica test (MUSCDO). The note with it: Example C, treated sponge. The method, then:
Musca domestica Test (MUSCDO)
as §1
To produce a suitable preparation of active compound, 1 part by weight of active compound is mixed with the stated amount of water, and the concentrate is diluted with water to the desired concentration.
Containers containing a sponge treated with the preparation of active compound of the desired concentration are populated with adult Musca domestica.
After the desired period of time, the kill in % is determined. 100% means that all flies have been killed; 0% means that none of the flies have been killed.
as §2

In experiment [5] the test system is unfed adult fleas (Ctenocephalides felis). Description: Ctenocephalides felis; oral (CTECFE). The note with it: Example J; 4 ppm active compound in citrated cattle blood, oral uptake. The method, then: Ctenocephalides felis; Oral (CTECFE)
as §1
To produce a suitable preparation of active compound, 1 part by weight of active compound is mixed with the stated amount of solvent. Part of the concentrate is diluted with citrated cattle blood, and the desired concentration is prepared.
20 unfed adult fleas (Ctenocephalides felis) are placed into a chamber whose top and bottom ends are closed with gauze. A metal cylinder whose bottom end is closed with parafilm is placed onto the chamber. The cylinder contains the blood/active compound preparation, which can be taken up by the fleas through the parafilm membrane. The blood is warmed to 37° C., but the flea chamber is at room temperature.
After the desired period of time, the kill in % is determined. 100% means that all fleas have been killed; 0% means that none of the fleas have been killed.
as §2

In experiment [6] the test system is greenhouse red spider mite (Tetranychus urticae). Description: Tetranychus test, OP-resistant (TETRUR spray treatment). The note with it: sprayed bean leaf discs. As to the method: Tetranychus Test, OP-resistant (TETRUR Spray Treatment)
• Solvents: 78 parts by weight of acetone • 1.5 parts by weight of dimethylformamide • Emulsifier: 0.5 part by weight of alkylaryl polyglycol ether
(§3) To produce a suitable preparation of active compound, 1 part by weight of active compound is mixed with the stated amounts of solvents and emulsifier, and the concentrate is diluted with emulsifier-containing water to the desired concentration.
Discs of bean leaves (Phaseolus vulgaris) heavily infested by all stages of the greenhouse red spider mite (Tetranychus urticae) are sprayed with a preparation of active compound of the desired concentration.
After the desired period of time, the effect in % is determined 100% means that all spider mites have been killed; 0% means that none of the spider mites have been killed.
as §2

Experiment [7] relates to eggs, larvae and pupae of the whitefly (Bemisia tabaci). Description: Bemisia tabaci test, normally sensitive strains (BEMITA). Conditions: Example E; 0.8 ppm active compound; sprayed cotton plants. The method, then:
Bemisia tabaci Test, Normally Sensitive Strains, (BEMITA)
• Solvent: 7 parts by weight of dimethylformamide • Emulsifier: 10 parts by weight of alkylaryl polyglycol ether
as §3
Cotton plants (Gossypium hirsutum) infected by eggs, larvae and pupae of the whitefly (Bemisia tabaci) are treated by being sprayed with the preparation of active compound at the desired concentration.
After the desired period of time, the kill in % is determined 100% means that all animals have been killed; 0% means that none of the animals have been killed.
as §2

[8] abbreviates: Example A, 0.8 ppm active compound.
The mark [9] stands for this setting: Example F, 0.00128 ppm active compound.
Setting [10] is: Example H, 0.032 ppm active compound.

In the case of `CC[C@H](C)[C@H]1OC2(C=C[C@@H]1C)C[C@@H]1C[C@@H](C/C=C(\C)[C@@H](OC3CC(OC)C(OC(=O)C(C)n4cccn4)C(C)O3)[C@@H](C)/C=C/C=C3\CO[C@@H]4[C@H](O)C(C)=CC(C(=O)O1)[C@]34O)O2` (stereo partly drawn) [Example 48], the “Kill rate in % after 5 days” value in experiment [1] is listed as 100%. In addition, the “Kill rate in % after 7 days” value in experiment [2] (Example G) came to 100%. Also, the “Kill rate in % after 2 days” value in experiment [3] (setting [8]) and in experiment [4] (100 ppm active compound) was 100% in each case.
`CC[C@H](C)[C@H]1OC2(C=C[C@@H]1C)C[C@@H]1C[C@@H](C/C=C(\C)[C@@H](OC3CC(OC)C(OC(=O)CN(C)C)C(C)O3)[C@@H](C)/C=C/C=C3\CO[C@@H]4[C@H](O)C(C)=CC(C(=O)O1)[C@]34O)O2` (stereo partly drawn) [Example 57]: the “Kill rate in % after 7 days” value in experiment [2] (Example G) was 100%. In addition, the “Kill rate in % after 2 days” value in experiment [5] worked out at 40%; in experiment [3] (setting [8]), 100%; in experiment [4] (100 ppm active compound) it was 90%.
For the compound `CC[C@H](C)[C@H]1OC2(C=C[C@@H]1C)C[C@@H]1C[C@@H](C/C=C(\C)[C@@H](OC3CC(OC)C(OC(=O)CN4CCCCC4)C(C)O3)[C@@H](C)/C=C/C=C3\CO[C@@H]4[C@H](O)C(C)=CC(C(=O)O1)[C@]34O)O2` (stereo partly drawn) [Example 50], in experiment [1], the “Kill rate in % after 5 days” value is on record as 100%. Besides, the “Kill rate in % after 7 days” value in experiment [2] (Example G) is recorded as 83%. For the same compound, the “Kill rate in % after 2 days” value was 50% in experiment [5], 100% in experiment [3] (setting [8]) and 90% in experiment [4] (100 ppm active compound).
As for `CC[C@H](C)[C@H]1OC2(C=C[C@@H]1C)C[C@@H]1C[C@@H](C/C=C(\C)[C@@H](OC3CC(OC)C(OC(=O)c4ccccc4)C(C)O3)[C@@H](C)/C=C/C=C3\CO[C@@H]4[C@H](O)C(C)=CC(C(=O)O1)[C@]34O)O2` (stereo partly drawn) [Example 2], in experiment [6] (setting [9]), the “Kill rate in % after 5 days” value worked out at 80%.
As for `CC[C@H](C)[C@H]1OC2(C=C[C@@H]1C)C[C@@H]1C[C@@H](C/C=C(\C)[C@@H](OC3CC(OC)C(OC(=O)C4(C)COCOC4)C(C)O3)[C@@H](C)/C=C/C=C3\CO[C@@H]4[C@H](O)C(C)=CC(C(=O)O1)[C@]34O)O2` (stereo partly drawn) [Example 14], the “Kill rate in % after 7 days” value in experiment [7] is listed as 80%. Further, the “Kill rate in % after 2 days” value in experiment [3] (setting [8]) is given as 100%.
Regarding `CC[C@H](C)[C@H]1OC2(CC[C@@H]1C)C[C@@H]1C[C@@H](C/C=C(\C)[C@@H](OC3CC(OC)C(OC(=O)C(C)(C)n4cncn4)C(C)O3)[C@@H](C)/C=C/C=C3\CO[C@@H]4[C@H](O)C(C)=CC(C(=O)O1)[C@]34O)O2` (stereo partly drawn) [Example 23], the “Kill rate in % after 5 days” value in experiment [6] (setting [10]) stood at 70%. Moreover, in experiment [2] (Example G), the “Kill rate in % after 7 days” value turned out to be 100%.
As to `CC[C@H](C)[C@H]1OC2(C=C[C@@H]1C)C[C@@H]1C[C@@H](C/C=C(\C)[C@@H](OC3CC(OC)C(OC(=O)Cc4nn(C)c(=O)n4C)C(C)O3)[C@@H](C)/C=C/C=C3\CO[C@@H]4[C@H](O)C(C)=CC(C(=O)O1)[C@]34O)O2` (stereo partly drawn) [Example 60], in experiment [2] (Example G), the “Kill rate in % after 7 days” value is 100%. The results for the “Kill rate in % after 2 days” value in experiment [5], in experiment [3] (setting [8]) and in experiment [4] (100 ppm active compound) were 50%, 90% and 100%, respectively.
As to `COC1CC(OC2C(C)=CCC3CC(CC4(CCC(C)C(C(C)C)O4)O3)OC(=O)C3C=C(C)C(O)C4OCC(=CC=CC2C)C34O)OC(C)C1OC(C)=O` [4′-O-acetyl-4′-O-de(2,6-dideoxy-3-O-methyl-α-L-arabino-hexopyranosyl)-5-O-demethyl-25-de(1-methylpropyl)-22,23-dihydro-25-(1-methylethyl)-avermectin A1a, reference compound], the “Kill rate in % after 5 days” value in experiment [6] (setting [10]) and in experiment [1] was 0% each time. Besides, in experiment [2] (Example G), the “Kill rate in % after 7 days” value was 0%. Also, the “Kill rate in % after 2 days” value in experiment [5] came out at 20%.
For the compound `CC[C@H](C)[C@H]1OC2(C=C[C@@H]1C)C[C@@H]1C[C@@H](C/C=C(\C)[C@@H](OC3CC(OC)C(OC(=O)CN(C)C(=O)OC(C)(C)C)C(C)O3)[C@@H](C)/C=C/C=C3\CO[C@@H]4[C@H](O)C(C)=CC(C(=O)O1)[C@]34O)O2` (stereo partly drawn) [Example 55], the “Kill rate in % after 2 days” value in experiment [3] (setting [8]) and in experiment [4] (100 ppm active compound) was 90% throughout.
As to “4′-O-acetyl-4′-O-de(2,6-dideoxy-3-O-methyl-α-L-arabino-hexopyrano-syl)-5-O-demethyl-avermectin A1a [reference compound]”, the “Kill rate in % after 5 days” value in experiment [6] (setting [9]) was 0%. For the same compound, the “Kill rate in % after 7 days” value in experiment [7] and in experiment [2] (Example D) was 0% each time. The “Kill rate in % after 2 days” value in experiment [3] (setting [8]) came out at 30%; in experiment [3] (Example B, 0.16 ppm active compound), 0%; in experiment [4] (0.8 ppm active compound), 0%; in experiment [4] (100 ppm active compound), 60%.
For the compound `CC[C@H](C)[C@H]1OC2(C=C[C@@H]1C)C[C@@H]1C[C@@H](C/C=C(\C)[C@@H](OC3CC(OC)C(OC(=O)C(C)N4CCOCC4)C(C)O3)[C@@H](C)/C=C/C=C3\CO[C@@H]4[C@H](O)C(C)=CC(C(=O)O1)[C@]34O)O2` (stereo partly drawn) [Example 52, 4′-O-(2-morpholin-4-ylpropanoyl)-avermectin B1 monosaccharide], the “Kill rate in % after 5 days” value in experiment [1] is recorded as 100%. In addition, the “Kill rate in % after 7 days” value in experiment [2] (Example G) is on record as 100%. Further, the “Kill rate in % after 2 days” value in experiment [5] was found to be 50%; in experiment [3] (setting [8]), 100%.
